# System: Aβ42 production
# Experiment: Quantification of Aβ peptide in culture of neurons from rat fetus brain (Aβ ELISA)
# Type: cell-based
# Settings: Rattus norvegicus, Neuron, 72 h, rat primary neuronal culture (embryonic day 18 Wistar rat cerebral cortex); cultured three days after addition of compound; Aβx-42 ELISA of the medium; read-out: Aβ42 production reducing effect IC50
# Method: Quantification of Aβ Peptide in Culture of Neurons from Rat Fetus Brain
# (1) Rat Primary Neuronal Culture
# Primary neuronal cultures were prepared from the cerebral cortex of embryonic day 18 Wistar rats (Charles River Japan, Yokohama, Japan). Specifically, the embryos were aseptically removed from pregnant rats under ether anesthesia. The brain was isolated from the embryo and immersed in an ice-cold L-15 medium (Invitrogen Corp. Cat #11415-064, Carlsbad, Calif., USA, or SIGMA L1518, for example). The cerebral cortex was collected from the isolated brain under a stereoscopic microscope. The cerebral cortex fragments collected were enzymatically treated in an enzyme solution containing 0.25% trypsin (Invitrogen Corp. Cat #15050-065, Carlsbad, Calif., USA) and 0.01% DNase (Sigma D5025, St. Louis, Mo., USA) at 37° C. for 30 minutes to disperse the cells. Here, the enzymatic reaction was stopped by adding inactivated horse serum to the solution. The enzymatically treated solution was centrifuged at 1,500 rpm for five minutes to remove the supernatant. 5 to 10 ml of a medium was added to the resulting cell mass. Neurobasal medium (Invitrogen Corp. Cat #21103-049, Carlsbad, Calif., USA) supplemented with 2% B27 supplement (Invitrogen Corp. Cat #17504-044, Carlsbad, Calif., USA), 25 μM 2-mercaptoethanol (2-ME, WAKO Cat #139-06861, Osaka, Japan), 0.5 mM L-glutamine (Invitrogen Corp. Cat #25030-081, Carlsbad, Calif., USA), and Antibiotics-Antimycotics (Invitrogen Corp. Cat #15240-062, Carlsbad, Calif., USA) was used as the medium (Neurobasal/B27/2-ME). However, the above Neurobasal medium not supplemented with 2-ME (Neurobasal/B27) was used for the assay. The cells were redispersed by mild pipetting of the cell mass to which the medium was added. The cell dispersion was filtered through a 40-μm nylon mesh (Cell Strainer, Cat #35-2340, Becton Dickinson Labware, Franklin Lakes, N.J., USA) to remove the remaining cell mass, and thus a neuronal cell suspension was obtained. The neuronal cell suspension was diluted with the medium and then plated in a volume of 100 μl/well at an initial cell density of 5×10^5 cells/cm^2 in a 96-well polystyrene culture plate pre-coated with poly-L or D-lysine (Falcon Cat #35-3075, Becton Dickinson Labware, Franklin Lakes, N.J., USA coated with poly-L-lysine using the method shown below, or BIOCOAT™ cell environments Poly-D-lysine cell ware 96-well plate, Cat #35-6461, Becton Dickinson Labware, Franklin Lakes, N.J., USA). Poly-L-lysine coating was carried out as follows. 100 μg/ml of a poly-L-lysine (SIGMA P2636, St. Louis, Mo., USA) solution was aseptically prepared with a 0.15 M borate buffer (pH 8.5). 100 μl/well of the solution was added to the 96-well polystyrene culture plate and incubated at room temperature for one or more hours or at 4° C. overnight or longer. The coated 96-well polystyrene culture plate was washed with sterile water four or more times, and then dried or rinsed with, for example, sterile PBS or medium, and used for cell plating. The plated cells were cultured in the culture plate at 37° C. in 5% CO2-95% air for one day. Then, the total amount of the medium was replaced with a fresh Neurobasal™/B27/2-ME medium, and then the cells were cultured for further three days.
# The drug was added to the culture plate on Day 4 of culture as follows. The total amount of the medium was removed from the wells, and 180 μl/well of Neurobasal medium not containing 2-ME and containing 2% B-27 (Neurobasal/B27) was added thereto. A solution of the test compound in dimethyl sulfoxide (hereinafter abbreviated as DMSO) was diluted with Neurobasal/B27 at 10-fold of the final concentration. 20 μl/well of the dilution was added to and sufficiently mixed with the medium. The final DMSO concentration was 1% or less. Only DMSO was added to the control group.
# The cells were cultured for three days after addition of the compound, and the total amount of the medium was collected. […]
row,SMILES,IC50 [nM]
1,"COCc1ccccc1C1CCCn2nc(/C=C/c3ccc(-n4cnc(C)c4)c(OC)c3)nc21 (single isomer, unassigned; (-)) [Example 22, (−)-2-{(E)-2-[3-methoxy-4-(4-methyl-1H-imidazol-1-yl)phenyl]vinyl}-8-(2-methoxymethylphenyl)-5,6,7,8-tetrahydro-[1,2,4]triazolo[1,5-a]pyridine]",25
2,"COCc1cc(F)ccc1C1CCCn2nc(/C=C/c3ccc(-n4cnc(C)c4)c(OC)c3)nc21 (single isomer, unassigned; (-)) [Example 24, (−)-8-(4-fluoro-2-methoxymethylphenyl)-2-{(E)-2-[3-methoxy-4-(4-methyl-1H-imidazol-1-yl)phenyl]vinyl}-5,6,7,8-tetrahydro-[1,2,4]triazolo[1,5-a]pyridine]",12
3,"COc1nc(/C=C/c2nc3n(n2)CCCC3c2ccccc2OC(F)(F)F)ccc1-n1cnc(C)c1 (single isomer, unassigned; (-)) [Example 283, (−)-8-(2-trifluoromethoxyphenyl)-2-{(E)-2-[6-methoxy-5-(4-methyl-1H-imidazol-1-yl)pyridin-2-yl]vinyl}-5,6,7,8-tetrahydro-[1,2,4]triazolo[1,5-a]pyridine]",27
4,"COc1nc(/C=C/c2nc3n(n2)CCCC3c2ccc(F)cc2C(F)(F)F)ccc1-n1cnc(C)c1 (single isomer, unassigned; (-)) [Example 286, (−)-8-(2-trifluoromethyl-4-fluorophenyl)-2-{(E)-2-[6-methoxy-5-(4-methyl-1H-imidazol-1-yl)pyridin-2-yl]vinyl}-5,6,7,8-tetrahydro-[1,2,4]triazolo[1,5-a]pyridine]",8
5,"COc1nc(/C=C/c2nc3n(n2)CCCC3c2ccccc2Br)ccc1-n1cnc(C)c1 (single isomer, unassigned; (-)) [Example 290, (−)-8-(2-bromophenyl)-2-{(E)-2-[6-methoxy-5-(4-methyl-1H-imidazol-1-yl)pyridin-2-yl]vinyl}-5,6,7,8-tetrahydro-[1,2,4]triazolo[1,5-a]pyridine]",16
6,"COc1cc(/C=C/c2nc3n(n2)CCCC3c2ccccc2C(F)(F)F)ccc1-n1cnc(C)c1 (single isomer, unassigned; (-)) [Example 311, (−)-2-{(E)-2-[3-methoxy-4-(4-methyl-1H-imidazol-1-yl)phenyl]vinyl}-8-(2-trifluoromethylphenyl)-5,6,7,8-tetrahydro-[1,2,4]triazolo[1,5-a]pyridine]",11
7,"COc1cc(/C=C/c2nc3n(n2)CCC3c2ccccc2C(F)(F)F)ccc1-n1cnc(C)c1 (single isomer, unassigned; (-)) [Example 317, (−)-2-{(E)-2-[3-methoxy-4-(4-methyl-1H-imidazol-1-yl)phenyl]vinyl}-7-(2-trifluoromethylphenyl)-6,7-dihydro-5H-pyrrolo[1,2-b][1,2,4]triazole]",25
8,"COc1nc(/C=C/c2nc3n(n2)CCCC3c2ccccc2C)ccc1-n1cnc(C)c1 (single isomer, unassigned; (-)) [Example 319, (−)-2-{(E)-2-[6-methoxy-5-(4-methyl-1H-imidazol-1-yl)pyridin-2-yl]vinyl}-8-(o-tolyl)-5,6,7,8-tetrahydro[1,2,4]triazolo[1,5-a]pyridine]",15
9,"COc1nc(/C=C/c2nc3n(n2)CCCC3c2cccc(C(F)(F)F)c2)ccc1-n1cnc(C)c1 (single isomer, unassigned; (-)) [Example 321, (−)-2-{(E)-2-[6-methoxy-5-(4-methyl-1H-imidazol-1-yl)pyridin-2-yl]vinyl}-8-(3-trifluoromethylphenyl)-5,6,7,8-tetrahydro[1,2,4]triazolo[1,5-a]pyridine]",23
10,"COc1nc(/C=C/c2nc3n(n2)CCCC3c2ccccc2F)ccc1-n1cnc(C)c1 (single isomer, unassigned; (-)) [Example 327, (−)-8-(2-fluorophenyl)-2-{(E)-2-[6-methoxy-5-(4-methyl-1H-imidazol-1-yl)pyridin-2-yl]vinyl}-5,6,7,8-tetrahydro-[1,2,4]triazolo[1,5-a]pyridine]",20
11,"COc1nc(/C=C/c2nc3n(n2)CCCC3c2cc(F)ccc2C(F)(F)F)ccc1-n1cnc(C)c1 (single isomer, unassigned; (-)) [Example 329, (−)-8-(5-fluoro-2-trifluoromethylphenyl)-2-{(E)-2-[6-methoxy-5-(4-methyl-1H-imidazol-1-yl)pyridin-2-yl]vinyl}-5,6,7,8-tetrahydro-[1,2,4]triazolo[1,5-a]pyridine]",17
12,"COc1nc(/C=C/c2nc3n(n2)CCCC3c2c(F)cccc2C(F)(F)F)ccc1-n1cnc(C)c1 (single isomer, unassigned; (-)) [Example 331, (−)-8-(6-fluoro-2-trifluoromethylphenyl)-2-{(E)-2-[6-methoxy-5-(4-methyl-1H-imidazol-1-yl)pyridin-2-yl]vinyl}-5,6,7,8-tetrahydro-[1,2,4]triazolo[1,5-a]pyridine]",22
13,"COc1nc(/C=C/c2nc3n(n2)CCCC3c2cccc(F)c2C)ccc1-n1cnc(C)c1 (single isomer, unassigned; (-)) [Example 333, (−)-8-(3-fluoro-2-methylphenyl)-2-{(E)-2-[6-methoxy-5-(4-methyl-1H-imidazol-1-yl)pyridin-2-yl]vinyl}-5,6,7,8-tetrahydro-[1,2,4]triazolo[1,5-a]pyridine]",10
14,"COc1nc(/C=C/c2nc3n(n2)CCCC3c2cc(F)cc(F)c2)ccc1-n1cnc(C)c1 (single isomer, unassigned; (-)) [Example 337, (−)-8-(3,5-difluorophenyl)-2-{(E)-2-[6-methoxy-5-(4-methyl-1H-imidazol-1-yl)pyridin-2-yl]vinyl}-5,6,7,8-tetrahydro[1,2,4]triazolo[1,5-a]pyridine]",13
15,"Cc1cn(-c2ccc(/C=C/c3nc4n(n3)CCCC4c3ccccc3C(F)(F)F)nc2OCC(F)F)cn1 (single isomer, unassigned; (-)) [Example 354, (−)-2-{(E)-2-[5-(4-methyl-1H-imidazol-1-yl)-6-(2,2-difluoroethoxy)pyridin-2-yl]vinyl}-8-(2-trifluoromethylphenyl)-5,6,7,8-tetrahydro-[1,2,4]triazolo[1,5-a]pyridine]",37
16,"COc1cc(/C=C/c2nc3n(n2)CCC/C3=C\c2ccccc2)ccc1-n1cnc(C)c1 [Example 12, 2-{(E)-2-[3-methoxy-4-(4-methyl-1H-imidazol-1-yl)phenyl]vinyl}-8-[1-phenylmethy-(E)-lidene]-5,6,7,8-tetrahydro[1,2,4]triazolo[1,5-a]pyridine]",135
17,"COc1cc(/C=C/c2nc3n(n2)C[C@H](C)C[C@@H]3c2ccc(F)cc2)ccc1-n1cnc(C)c1 [Example 97, (6R,8R)-8-(4-fluorophenyl)-2-{(E)-2-[3-methoxy-4-(4-methyl-1H-imidazol-1-yl)phenyl]vinyl}-6-methyl-5,6,7,8-tetrahydro-[1,2,4]triazolo[1,5-a]pyridine]",38
18,"COc1cc(/C=C/c2nc3n(n2)C[C@@H](C)C[C@@H]3c2ccc(F)cc2)ccc1-n1cnc(C)c1 [Example 99, (6S,8R)-8-(4-fluorophenyl)-2-{(E)-2-[3-methoxy-4-(4-methyl-1H-imidazol-1-yl)phenyl]vinyl}-6-methyl-5,6,7,8-tetrahydro-[1,2,4]triazolo[1,5-a]pyridine]",20

# Reference: patent publication US7935815B2, “Imidazoyl pyridine compounds and salts thereof” (Eisai R&D Management Co., Ltd., priority 2007, dated 2011)
